Measured values published in ChEMBL document CHEMBL3045837, “Tobacco mosaic virus (TMV) inhibitors from Picrasma quassioides Benn” (J Agric Food Chem, 2009).
Active and inactive are the calls of the source. No cut-off for these calls is given here.

Assays:
[1] = system: Tobacco mosaic virus; experiment: Antiviral activity against Tobacco mosaic virus U1 (TMV) infected Nicotiana tabacum cv. K326 leaves assessed as inhibition of viral replication in presence of 25 ug/mL quassinoid nigakilactone B measured 48 hr after compound exposure by leaf-disk method; type: functional, organism-based; settings: U1, 48 h
[2] = system: Tobacco mosaic virus; experiment: Antiviral activity against Tobacco mosaic virus U1 (TMV) infected Nicotiana glutinosa leaves assessed as inhibition of viral replication at 50 ug/mL measured 48 hr after compound exposure by half leaf method; type: functional; settings: U1, in Nicotiana glutinosa
[3] = system: Tobacco mosaic virus; experiment: Antiviral activity against Tobacco mosaic virus U1 (TMV) infected Nicotiana glutinosa leaves assessed as inhibition of viral infection at 50 ug/mL using compound pre-treated virus suspension measured 5 to 6 days after compound exposure; type: functional; settings: U1, in Nicotiana glutinosa
[4] = system: Tobacco mosaic virus; experiment: Antiviral activity against Tobacco mosaic virus U1 (TMV) infected Nicotiana tabacum cv. K326 leaves assessed as inhibition of viral replication at 50 ug/mL in presence of 25 ug/mL quassinoid nigakilactone B measured 48 hr after compound exposure by leaf-disk method; type: functional
[5] = system: Tobacco mosaic virus; experiment: Antiviral activity against Tobacco mosaic virus U1 (TMV) infected Nicotiana glutinosa leaves assessed as inhibition of viral replication at 50 ug/mL in presence of 25 ug/mL quassinoid nigakilactone B measured 48 hr after compound exposure by half leaf method; type: functional
[6] = system: Tobacco mosaic virus; experiment: Antiviral activity against Tobacco mosaic virus U1 (TMV) infected Nicotiana glutinosa leaves assessed as inhibition of viral infection at 50 ug/mL using compound pre-treated virus suspension in presence of 25 ug/mL quassinoid nigakilactone B measured 5 to 6 days after compound exposure; type: functional
[7] = system: Tobacco mosaic virus; experiment: Antiviral activity against Tobacco mosaic virus U1 (TMV) infected Nicotiana tabacum cv. K326 leaves assessed as inhibition of viral replication at 50 ug/mL measured 48 hr after compound exposure by leaf-disk method; type: functional; settings: U1, 48 h
[8] = system: Tobacco mosaic virus; experiment: Antiviral activity against Tobacco mosaic virus U1 (TMV) infected Nicotiana tabacum cv. K326 leaves assessed as inhibition of viral replication measured 48 hr after compound exposure by leaf-disk method; type: functional, organism-based; settings: U1, 48 h
[9] = system: Tobacco mosaic virus; experiment: Inhibition of Tobacco mosaic virus U1 (TMV) coat protein accumulation using virus infected Nicotiana tabacum cv. K326 leaves by SDS-PAGE and Western blotting method; type: functional, organism-based
[10] = system: Tobacco mosaic virus; experiment: Inhibition of Tobacco mosaic virus U1 (TMV) coat protein accumulation using virus infected Nicotiana tabacum cv. K326 leaves at 50 ug/mL by SDS-PAGE and Western blotting method; type: functional, organism-based

| SMILES | EC50 [1] [µM] | inhibition at 50 µg/mL [2] [%] | inhibition at 50 µg/mL [3] [%] | inhibition (INH) [4] [%] | inhibition (INH) [5] [%] | inhibition (INH) [6] [%] | inhibition at 50 µg/mL [7] [%] | EC50 [8] [µM] | inhibition [9] | inhibition [10] |
| --- | --- | --- | --- | --- | --- | --- | --- | --- | --- | --- |
| COc1cccc2c1[nH]c1c(CCC(=O)c3nccc4c3[nH]c3ccccc34)ncc(OC)c12 | 78 | 39.4 | 45.5 | 64.8 | 52.4 | 68.3 | 28.9 | 131 |  |  |
| COc1cccc2c3c([nH]c12)C(=O)NC(=O)C3=O | 183 | 39.5 | 50 | 59.8 | 47.3 | 55.9 | 35.1 | 257 |  |  |
| COC(=O)c1nccc2c1[nH]c1ccccc12 | 115 | 47.4 | 71.4 | 71.9 | 68.4 | 73.3 | 60.4 | 179 | Dose-dependent effect |  |
| COC1=C[C@@H](C)[C@@H]2C[C@H]3OC(=O)C[C@H]4[C@@H](C)[C@H](OC)[C@@H](O)[C@H]([C@@]2(C)C1=O)[C@@]34C [NIGAKILACTONE B] |  | 6.7 | 10 |  |  |  | 3.2 |  |  | inactive |
| COc1cc2nccc3c4ccccc4n(c1=O)c23 [5-METHOXYCANTHINONE] |  | 40 | 36.4 | 45.7 | 50 | 58.3 | 27.5 |  |  |  |
| O=C1NC(=O)c2[nH]c3ccccc3c2C1=O |  | 29.4 | 44.4 | 35.8 | 33.3 | 52.1 | 29.5 |  |  |  |
| COc1c(OC)c2nccc3c4ccccc4n(c1=O)c23 [4,5-DIMETHOXYCANTHIN-6-ONE] | 130 | 33.3 | 58.3 | 59 | 43.8 | 61.1 | 42.6 | 189 |  |  |
| CNCC(=O)N[C@@H](CO)C(=O)N[C@H]1[C@H](O)[C@@H](O)[C@H](n2ccc(N)nc2=O)O[C@@H]1C(N)=O [NINGNANMYCIN] | 129 | 54.5 | 60 | 52.6 | 53.8 | 55.6 | 51 | 135 |  |  |
| C=Cc1ncc(OC)c2c1[nH]c1c(OC)cccc12 |  | 38.5 | 53.3 | 63 | 47.1 | 58.3 | 39.7 |  |  |  |
| COC(=O)c1ncc(O)c2c1[nH]c1ccccc12 |  | 41.7 | 60 | 62.3 | 55.6 | 69.2 | 45.7 |  |  |  |
| COc1c(O)c2nccc3c4ccccc4n(c1=O)c23 [PICRASIDINE Q] |  | 35.7 | 42.9 | 52.6 | 53.8 | 66.7 | 25.6 |  |  |  |
| CCc1nccc2c1[nH]c1c(OC)cccc12 |  | 25 | 45.5 | 48.4 | 36.4 | 50 | 20.9 |  |  |  |
